The target in one assay is human DGKζ (Homo sapiens (Human), UniProt Q13574). The assay can be described thus: DGKζ liposome (LIPGLO) in vitro DGK inhibition assay. In kind it is biochemical. Conditions: extruded liposome substrate; 150 μM ATP; 5 nM enzyme; read-out: DGKz LIPGLO IC50. On the procedure: The DGKα and DGKζ reactions were performed using either extruded liposome (DGKα and DGKζ LIPGLO assays) or detergent/lipid micelle substrate (DGKα and DGKζ assays). The reactions were carried out in 50 mM MOPS pH 7.5, 100 mM NaCl, 10 mM MgCl2, 1 μM CaCl2), and 1 mM DTT (assay buffer). The reactions using a detergent/lipid micelle substrate also contained 50 mM octyl B-D-glucopyranoside. The lipid substrate concentrations were 11 mM PS and 1 mM DAG for the detergent/lipid micelle reactions. The lipid substrate concentrations were 2 mM PS, 0.25 mM DAG, and 2.75 mM PC for the extruded liposome reactions. The reactions were carried out in 150 μM ATP. The enzyme concentrations for the DGKα and DGKζ were 5 nM.
The compound inhibition studies were carried out as follows: 50 nL droplets of each test compound (top concentration 10 mM with 11 point, 3-fold dilution series for each compound) solubilized in DMSO were transferred to wells of a white 1536 well plate (Corning 3725). A 5 mL enzyme/substrate solution at 2× final reaction concentration was prepared by combining 2.5 mL 4× enzyme solution (20 nM DGKα or DGKζ (prepared as described below) in assay buffer) and 2.5 mL of either 4× liposome or 4× detergent/lipid micelle solution (compositions described below) and incubated at room temperature for 10 minutes. Next, 1 μL 2× enzyme/substrate solution was added to wells containing the test compound and reactions were initiated with the addition of 1 μL 300 uM ATP. The reactions were allowed to proceed for 1 hr, after which 2 μL Glo Reagent (Promega V9101) was added and incubated for 40 minutes. Next, 4 μL Kinase Detection Reagent was added and incubated for 30 minutes. Luminescence was recorded using an EnVision microplate reader. […] The compounds were evaluated at 11 concentrations to determine IC50.
The lipid composition was 5 mol % DAG (Avanti 8008110), 40 mol % PS (Avanti 840035P), and 55 mol % PC (Avanti 850457) at a total lipid concentration of 15.2 mg/mL for the 4× liposome solution. The PC, DAG, and PS were dissolved in chloroform, combined, and dried in vacuo to a thin film. The lipids were hydrated to 20 mM in 50 mM MOPS pH 7.5, 100 mM NaCl, 5 mM MgCl2, and were freeze-thawed five times. The lipid suspension was extruded through a 100 nm polycarbonate filter eleven times. Dynamic light scattering was carried out to confirm liposome size (50-60 nm radius). The liposome preparation was stored at 4° C. for as long as four weeks.
Human DGK-alpha-TVMV-His-pFBgate and human DGK-zeta-transcript variant-2-TVMV-His-pFBgate baculovirus samples were generated using the Bac-to-Bac baculovirus expression system (Invitrogen) according to the manufacturer's protocol. The DNA used for expression of DGK-alpha and DGK-zeta have SEQ ID NOs: 251 and 252, respectively. Baculovirus amplification was achieved using infected Sf9 cells at 1:1500 virus/cell ratios, and grown for 65 hours at 27° C. post-transfection.
The expression scale up for each protein was carried out in the Cellbag 50 L WAVE-Bioreactor System 20/50 from GE Healthcare Bioscience. 12 L of 2×10^6 cells/mL Sf9 cells (Expression System, Davis, CA) grown in ESF921 insect medium (Expression System) were infected with virus stock at 1:200 virus/cell ratios, and grown for 66-68 hours at 27° C. post-infection. The infected cell culture was harvested by centrifugation at 2000 rpm for 20 min 4° C. in a SORVALL® RC12BP centrifuge. The cell pellets were stored at −70° C. until purification. […]

In a further assay the target is human DGKα (Homo sapiens (Human), UniProt P23743). Nature of the assay: DGKα liposome (LIPGLO) in vitro DGK inhibition assay. In kind it is biochemical. To be noted: extruded liposome substrate; 150 μM ATP; 5 nM enzyme; read-out: DGKa LIPGLO IC50.
The test system of another assay is Human venous whole blood. The assay can be described thus: Human whole blood IFN-γ assay. Conditions: anti-CD3 and anti-CD28 1 μg/mL each, 3 μM reference compound as 100% activation, read-out: INFg Whole Blood Normalized Agonist EC50. In kind it is cell-based. The method, then: Human venous whole blood (22.5 μL per well), obtained from healthy donors, was pre-treated with compounds for one hour at 37° C. in a humidified 95% air/5% CO2 incubator. The blood was stimulated with 2.5 μL anti-human CD3 and anti-CD28 mAb at a final concentration of 1 μg/mL each for 24 hours at 37° C. IFN-γ in the supernatants was measured using ALphLISA kit (Cat #AL217).

Assay [1] deals with OT-1 antigen-specific CD8+ T cells with SIINFEKL-loaded MC38 tumor cells. The assay can be described thus: Murine cytotoxic T lymphocyte (CTL) assay, IFN-γ readout. Format: cell-based, mouse. Conditions: IFN-γ in supernatant after 24 hours, AlphaLisa; read-out: msCTL INFg IC50. An excerpt: An antigen-specific cytolytic T-cell (CTL) assay was developed to evaluate functionally the ability of DGKα and DGKζ inhibitors to enhance effector T cell mediated tumor cell killing activity. CD8+ T-cells isolated from the OT-1 transgenic mouse recognize antigen presenting cells, MC38, that present the ovalbumin derived peptide […]. Recognition of the cognate antigen initiates the cytolytic activity of the OT-1 antigen-specific CD8+ T cells.
Functional CTL cells were generated as follows: OT-1 splenocytes from 8-12 week old mice were isolated and expanded in the presence of the […] peptide at 1 μg/mL and mIL2 at 10 U/mL. After three days, fresh media with […] was added. On day 5 of the expansion, the CD8+ T cells were isolated and ready for use. Activated CTL cells may be stored frozen for 6 months. Separately, one million MC38 tumor cells were pulsed with 1 μg/mL of […]-OVA peptide for 3 hours at 37° C. The cells were washed (3×) with fresh media to remove excess peptide. Finally, CTL cells that were pretreated with DGK inhibitors for 1 hour in a 96-well U bottom plate were combined with the antigen loaded MC38 tumor cells at a 1:10 ratio. The cells were then spun at 700 rpm for 5 min and placed in an incubator overnight at 37° C. After 24 hours, the supernatant was collected for analysis of IFN-γ cytokine levels by AlphaLisa purchased from Perkin Elmer.
For orientation: In Alpha technology, singlet oxygen from a donor bead excites a nearby acceptor bead.

Another assay has as its system naïve human CD8 T cells. The assay can be described thus: Human CD8 T cells IFN-γ assay. Format: cell-based. To be noted: anti-CD3 plus anti-CD28 as baseline, 3 μM reference compound as 100% activation, 20 h, read-out: HuCD8 INFG Normalized EC50. The method, then: Frozen naïve human CD8 T cells were thawed in AIM-V media, incubated for 2 h in 37° C., and counted. The 384-well tissue culture plate was coated overnight at 4° C. with 20 μL anti-human CD3 at 0.05 μg/mL in PBS, which was removed off the plate before 40,000 cells per 40 microliters CD8 T cells with 0.1 μg/mL soluble anti-human CD28 were added to each well. The compounds were transferred using an Echo liquid handler to the cell plate immediately after the cells were plated. After 20 h incubation at 37° C. incubator, 3 microliters per well supernatants transferred into anew 384-well white assay plate for cytokine measurement.
Interferon-γ (IFN-γ) was quantitated using the AlphLISA kit (Cat #AL217) as described by the manufacturer manual (Perkin Elmer). The counts from each well were converted to IFN-γ concentration (pg/mL).

The term IC50 denotes the point on the concentration scale where inhibition reaches its midpoint. For orientation: EC50 means the concentration needed to bring the measured effect to its halfway point.

The structures appear in SMILES notation. Like-named read-outs stand apart in the source and are kept apart here.

Chain of human DGKα (P23743 other isoform, or with tags, fused parts or gaps): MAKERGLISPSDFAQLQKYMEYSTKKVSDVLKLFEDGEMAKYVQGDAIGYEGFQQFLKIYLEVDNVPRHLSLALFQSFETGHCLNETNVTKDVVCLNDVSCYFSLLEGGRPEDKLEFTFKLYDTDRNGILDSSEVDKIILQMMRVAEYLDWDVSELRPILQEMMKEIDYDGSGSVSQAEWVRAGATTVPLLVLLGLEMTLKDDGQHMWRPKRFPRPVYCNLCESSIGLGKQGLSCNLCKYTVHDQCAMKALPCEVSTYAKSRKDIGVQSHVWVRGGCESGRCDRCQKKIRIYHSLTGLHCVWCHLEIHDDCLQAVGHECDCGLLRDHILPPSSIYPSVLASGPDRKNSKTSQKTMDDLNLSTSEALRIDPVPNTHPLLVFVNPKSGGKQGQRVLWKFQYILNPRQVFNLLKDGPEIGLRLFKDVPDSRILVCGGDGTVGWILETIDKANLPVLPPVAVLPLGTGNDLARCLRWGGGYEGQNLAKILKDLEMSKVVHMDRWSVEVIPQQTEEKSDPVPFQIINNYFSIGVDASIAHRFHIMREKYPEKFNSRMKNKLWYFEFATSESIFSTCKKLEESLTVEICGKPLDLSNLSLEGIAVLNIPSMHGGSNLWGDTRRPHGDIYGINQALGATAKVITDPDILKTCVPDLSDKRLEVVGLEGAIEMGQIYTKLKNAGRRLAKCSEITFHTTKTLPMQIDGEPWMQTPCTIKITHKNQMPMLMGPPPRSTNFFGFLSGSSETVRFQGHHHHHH
Chain of human DGKζ (Q13574 other isoform, or with tags, fused parts or gaps isoform Q13574-4): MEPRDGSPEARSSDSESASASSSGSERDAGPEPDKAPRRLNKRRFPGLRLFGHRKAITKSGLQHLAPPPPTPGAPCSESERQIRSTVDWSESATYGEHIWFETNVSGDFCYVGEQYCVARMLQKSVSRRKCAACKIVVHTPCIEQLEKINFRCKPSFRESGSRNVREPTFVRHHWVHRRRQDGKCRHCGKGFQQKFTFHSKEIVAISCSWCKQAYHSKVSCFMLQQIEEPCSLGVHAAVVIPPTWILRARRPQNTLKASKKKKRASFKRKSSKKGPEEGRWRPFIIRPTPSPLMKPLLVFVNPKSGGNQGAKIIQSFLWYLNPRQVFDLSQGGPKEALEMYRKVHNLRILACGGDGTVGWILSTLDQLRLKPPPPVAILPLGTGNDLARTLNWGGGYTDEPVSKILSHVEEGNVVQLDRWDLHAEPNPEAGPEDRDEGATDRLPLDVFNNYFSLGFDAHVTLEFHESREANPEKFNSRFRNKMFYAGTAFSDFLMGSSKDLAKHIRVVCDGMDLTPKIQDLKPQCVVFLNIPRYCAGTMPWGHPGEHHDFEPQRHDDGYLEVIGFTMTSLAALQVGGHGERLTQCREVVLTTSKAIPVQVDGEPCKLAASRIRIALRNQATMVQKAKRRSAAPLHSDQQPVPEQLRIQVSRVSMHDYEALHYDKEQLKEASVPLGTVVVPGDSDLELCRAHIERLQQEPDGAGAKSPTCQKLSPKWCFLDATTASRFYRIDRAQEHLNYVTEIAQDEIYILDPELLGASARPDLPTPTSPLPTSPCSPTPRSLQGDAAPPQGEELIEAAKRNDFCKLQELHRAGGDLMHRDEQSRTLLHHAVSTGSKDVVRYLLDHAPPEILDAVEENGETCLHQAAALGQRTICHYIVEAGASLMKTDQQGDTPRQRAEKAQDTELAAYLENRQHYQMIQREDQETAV
Description for human DGKα: The DGKα and DGKζ reactions were performed using either extruded liposome (DGKα and DGKζ LIPGLO assays) or detergent/lipid micelle substrate (DGKα and DGKζ assays). The reactions were carried out in 50 mM MOPS pH 7.5, 100 mM NaCl, 10 mM MgCl2, 1 μM CaCl2), and 1 mM DTT (assay buffer). The reactions using a detergent/lipid micelle substrate also contained 50 mM octyl B-D-glucopyranoside. The lipid substrate concentrations were 11 mM PS and 1 mM DAG for the detergent/lipid micelle reactions. […] The enzyme concentrations for the DGKα and DGKζ were 5 nM.

Take `CCC(c1ccc(F)cc1F)N1C[C@H](C)N(c2cc(=O)n(C)c3ccc(C#N)nc23)C[C@H]1C` (mixture of isomers) [Compound 12, 8-((2S,5R)-4-(1-(2,4-difluorophenyl)propyl)-2,5-dimethylpiperazin-1-yl)-5-methyl-6-oxo-5,6-dihydro-1,5-naphthyridine-2-carbonitrile]: the 50% inhibitory concentration (IC50) at human DGKζ turned out to be 0.46 µM; on human DGKα, 0.57 µM. As to `C[C@@H]1CN(c2cc(=O)n(C)c3ccc(C#N)nc23)[C@@H](C)CN1C(c1ccccc1)c1ccc(F)cc1` (single isomer, unassigned) [Compound 7], the concentration giving a half-maximal response (EC50) with Human venous whole blood (24 hours) came to 0.57 µM; in the assay with naïve human CD8 T cells, 0.047 µM. In assay [1], the IC50 came to 0.064 µM.

For `CC[C@@H]1CN(c2nc(=O)n(C)c3ccc(C#N)nc23)[C@@H](C)CN1C(C)c1ccc(C(F)(F)F)cc1` (single isomer, unassigned) [Compound 19], the EC50 in the assay on Human venous whole blood (24 hours) turned out to be 0.52 µM. As for `CC[C@@H]1CN(c2nc(=O)n(C)c3ccc(C#N)nc23)[C@@H](C)CN1C(C)c1ccc(C(F)(F)F)cc1` (single isomer, unassigned) [Compound 20], in the assay with Human venous whole blood (24 hours), the EC50 is 0.032 µM. For `CC[C@@H]1CN(c2nc(=O)n(C)c3ccc(C#N)nc23)[C@@H](C)CN1C(c1ccc(F)cc1)c1ccc(C(F)(F)F)cn1` (single isomer, unassigned) [Compound 22], the EC50 in the assay with Human venous whole blood (Homo sapiens, 24 h) worked out at 0.02 µM.

Regarding `CC[C@@H]1CN(c2nc(=O)n(C)c3ccc(C#N)nc23)[C@@H](C)CN1C(c1ccc(Cl)cc1)c1ccccn1` (single isomer, unassigned) [Compound 23], the EC50 in the assay with Human venous whole blood (24 hours) worked out at 10.5 µM. Turning to `CC[C@@H]1CN(c2nc(=O)n(C)c3ccc(C#N)nc23)[C@@H](C)CN1C(c1ccc(Cl)cc1)c1ccccn1` (single isomer, unassigned) [Compound 24], the concentration giving a half-maximal response (EC50) in the assay on Human venous whole blood (24 hours) came out at 0.2 µM.

Take `CCC1CN(C(c2ccc(F)cc2)c2nc(C3CC3)no2)C(CC)CN1c1nc(=O)n(C)c2ccc(C#N)nc12` (single isomer, unassigned) [Compound 25]: the IC50 was found to be 0.029 µM on human DGKζ and 0.067 µM on human DGKα. For the same compound, in the assay on Human venous whole blood (24 hours), the half-maximal effective concentration (EC50) was determined as 0.015 µM. On to `CCC1CN(C(c2ccc(F)cc2)c2nc(C3CC3)no2)C(CC)CN1c1nc(=O)n(C)c2ccc(C#N)nc12` (single isomer, unassigned) [Compound 26], for which the IC50 at human DGKζ came to 0.033 µM; on human DGKα it was 0.014 µM. Moreover, the EC50 with Human venous whole blood (24 hours) was 0.09 µM.

For the compound `C[C@@H]1CN(c2cc(=O)n(C)c3ccc(C#N)nc23)[C@@H](C)CN1C(c1ccccc1)c1ccc(F)cc1` (stereo partly drawn) [Compound 5, 8-[(2S,5R)-4-[(4-fluorophenyl)(phenyl)methyl]-2,5-dimethylpiperazin-1-yl]-5-methyl-6-oxo-5,6-dihydro-1,5-naphthyridine-2-carbonitrile], the IC50 at human DGKζ turned out to be 1.6 µM; at human DGKα, 0.87 µM. In the case of `Cc1ccc(C(c2ccc(F)cc2)N2C[C@H](C)N(c3cc(=O)n(C)c4ccc(C#N)nc34)C[C@H]2C)cc1` (stereo partly drawn) [Compound 10, 8-[(2S,5R)-4-[(4-fluorophenyl)(4-methylphenyl)methyl]-2,5-dimethylpiperazin-1-yl]-5-methyl-6-oxo-5,6-dihydro-1,5-naphthyridine-2-carbonitrile], the concentration for half-maximal inhibition (IC50) was 0.32 µM at human DGKζ and 0.67 µM at human DGKα. For the same compound, the concentration for a half-maximal effect (EC50) in the assay with Human venous whole blood (Homo sapiens, 24 h) amounted to 0.44 µM; with naïve human CD8 T cells (Homo sapiens, T-cell) it was 0.023 µM. Take `CCC(c1ccc(C(F)(F)F)cc1)N1C[C@H](CC)N(c2nc(=O)n(C)c3ccc(C#N)nc23)C[C@H]1CC` (stereo partly drawn) [Compound 18, 4-((2S,5R)-2,5-Diethyl-4-(1-(4-(trifluoromethyl)phenyl)propyl)piperazin-1-yl)-1-methyl-2-oxo-1,2-dihydropyrido[3,2-d]pyrimidine-6-carbonitrile]: in the assay with Human venous whole blood (24 hours), the EC50 is 3.75 µM. Turning to `CC[C@@H]1CN(c2nc(=O)n(C)c3ccc(C#N)nc23)[C@@H](C)CN1C(c1ccc(F)cc1)c1ccc(C(F)(F)F)cn1` (stereo partly drawn) [Compound 21, 4-((2S,5R)-5-Ethyl-4-((4-fluorophenyl)(5-(trifluoromethyl)pyridin-2-yl)methyl)-2-methylpiperazin-1-yl)-1-methyl-2-oxo-1,2-dihydropyrido[3,2-d]pyrimidine-6-carbonitrile], the EC50 in the assay with Human venous whole blood (Homo sapiens, 24 h) was determined as 0.043 µM.

For the origin of these results see patent US20240108654A1, “COMBINATION OF A T CELL THERAPY AND A DGK INHIBITOR” (Juno Therapeutics, Inc., priority 2021, published 2024).
